Values quoted from earlier work, collected in publication PMC5548701, “Selective targeting of melanoma using N-(2-diethylaminoethyl) 4-[^18F]fluoroethoxy benzamide (4-[^18F]FEBZA): a novel PET imaging probe” (EJNMMI Research, 2017).

How the values were obtained:
B16F1 tumor = conditions: cited from earlier work; for intestinal uptake: mice bearing B16F melanoma tumor; for bone uptake: 2 h
[1] = design: method as in PMID 27693672; conditions: 60–70 min; cited from earlier work

Row | SMILES | intestinal uptake (B16F1 tumor; 1 h) [%IA/g] | bone uptake (B16F1 tumor) [%IA/g] | uptake in mouse brain from microPET imaging [1] [%IA/g] | F-18 uptake in B16F1 tumor (B16F1 tumor; 1 h) [%IA/g]
1 | CCN(CC)CCNC(=O)c1ccc([18F])cc1 [^18F-DAFBA, N-(2-diethylaminoethyl)-4-[18F]fluorobenzamide] | 3.04 ± 0.24 | 0.20 ± 0.06 | – | –
2 | CCN(CC)CCNC(=O)c1ccc(F)nc1 [MEL050] | 2.1 ± 0.3 | 0.58 ± 0.05 | 1.38 ± 0.40 | 8.4 ± 1.5
